From patent US9309248B2, “Azaindolines” (Hoffmann-La Roche Inc., priority 2012, dated 2016)

What was measured:
[1] = target: T1, BIR3 domain of XIAP (Homo sapiens, UniProt P98170); test: TR-FRET assay for BIR3 (inhibition of binding of XIAP BIR3 domain to SMAC-derived Peptide A); conditions: 6x Histidine-tagged BIR3 domain (amino acids 241-356 of XIAP) 10 nM, Peptide A 20 nM
T1 construct: BIR3 domain, corresponding to amino acids 241-356 of XIAP
Description: (§1) TR-FRET Assay for BIR2 and BIR3
(§2) The ability of a test compound to inhibit the binding of BIR2 and/or BIR3 domains of the XIAP protein to Peptide A (a SMAC-derived peptide described below) evidences that the test compound acts as a SMAC-mimetic resulting in reactivation of a cell's apoptotic pathway.
(§3) The peptides were labeled with the fluorescent tags FITC or TAMRA and Kd values were determined by fluorescence polarization assay. […] The peptide sequence was derivatized with biotin to provide […]-(ε-biotin)-OH 1:2 TFA as the substrate for the TR-FRET assay.
The sequence of the BIR3 domain used for the TR-FRET assay is […]
Ten nanomolar of 6× Histidine-tagged BIR2 domain, corresponding to amino acids 124-240 of XIAP, or BIR3 domain, corresponding to amino acids 241-356 of XIAP, was mixed with 20 nM of the peptide […]-(z-biotin)-OH 1:2 TFA, in the presence of 50 mM Tris-Cl, pH 7.5, 100 mM NaCl, 1 mM dithiothreitol (DTT) and 0.1 mg/mL bovine serum albumin (BSA). Following a […] incubation at 37° C., Europium-Streptavidin and Allophycocyanin conjugated anti-Histidine antibody were added to a final concentration of 1.5 nM and 15 nM, respectively. Time-resolved fluorescence resonance energy transfer (TR-FRET) signals were measured 1 hour later at room temperature. Test compound potency was assessed at 10 serially diluted concentrations. Percentage of inhibition at each concentration was determined to generate an IC50 value for each test compound.

[2] = target: T2, BIR2 domain of XIAP (Homo sapiens, UniProt P98170, C202A/C213G); test: TR-FRET assay for BIR2 (inhibition of binding of XIAP BIR2 domain to SMAC-derived Peptide A); conditions: 6x Histidine-tagged BIR2 domain (amino acids 124-240 of XIAP) 10 nM, Peptide A 20 nM
T2 construct: 6× Histidine-tagged BIR2 domain, corresponding to amino acids 124-240 of XIAP
Description: as §1, §2, §3
The XIAP protein sequence was obtained from the SWISS-PROT protein sequence database and the BIR2 and BIR3 domains were derived from that. The sequence of the BIR2 domain used for the TR-FRET assay is […].
Time-resolved fluorescence resonance energy transfer (TR-FRET) signals were measured 1 hour later at room temperature. Test compound potency was assessed at 10 serially diluted concentrations. Percentage of inhibition at each concentration was determined to generate an IC50 value for each test compound.

T1 sequence (P98170 with tags, fused parts or gaps): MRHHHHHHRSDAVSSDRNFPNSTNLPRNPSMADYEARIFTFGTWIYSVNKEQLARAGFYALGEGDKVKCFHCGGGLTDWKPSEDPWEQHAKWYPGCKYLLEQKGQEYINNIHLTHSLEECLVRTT
T2 sequence (P98170 with tags, fused parts or gaps C202A/C213G): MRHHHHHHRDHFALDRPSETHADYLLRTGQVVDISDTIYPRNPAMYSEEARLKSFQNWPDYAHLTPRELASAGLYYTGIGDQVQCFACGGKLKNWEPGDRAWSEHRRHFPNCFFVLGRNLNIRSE

Compound | IC50 [1] [µM] | IC50 [2] [µM]
CN[C@@H](C)C(=O)N[C@H](C(=O)N1c2ncccc2C[C@H]1C(=O)Nc1cc(C)ccc1F)C(C)C [Example 44, (S)-1-[(S)-3-Methyl-2-((S)-2-methylamino-propionylamino)-butyryl]-2,3-dihydro-1H-pyrrolo[2,3-b]pyridine-2-carboxylic acid (2-fluoro-5-methyl-phenyl)-amide] | > 54.8 | 0.0038
CN[C@@H](C)C(=O)N[C@H](C(=O)N1c2ncccc2C[C@H]1C(=O)Nc1cc(C)cc(C)c1)C(C)C [Example 45, (S)-1-[(S)-3-Methyl-2-((S)-2-methylamino-propionylamino)-butyryl]-2,3-dihydro-1H-pyrrolo[2,3-b]pyridine-2-carboxylic acid (3,5-dimethyl-phenyl)-amide] | > 54.8 | 0.304
CN[C@@H](C)C(=O)N[C@H](C(=O)N1c2ncccc2C[C@H]1C(=O)Nc1ccc(C)cc1F)C(C)C [Example 46, (S)-1-[(S)-3-Methyl-2-((S)-2-methylamino-propionylamino)-butyryl]-2,3-dihydro-1H-pyrrolo[2,3-b]pyridine-2-carboxylic acid (2-fluoro-4-methyl-phenyl)-amide] | > 54.8 | 0.00404
CN[C@@H](C)C(=O)N[C@H](C(=O)N1c2ncccc2C[C@H]1C(=O)Nc1ccc(OC)cc1F)C(C)C [Example 47, (S)-1-[(S)-3-Methyl-2-((S)-2-methylamino-propionylamino)-butyryl]-2,3-dihydro-1H-pyrrolo[2,3-b]pyridine-2-carboxylic acid (2-fluoro-4-methoxy-phenyl)-amide] | > 54.8 | 0.00429
CN[C@@H](C)C(=O)N[C@H](C(=O)N1c2ncccc2C[C@H]1C(=O)Nc1ccccc1C#N)C(C)C [Example 48, (S)-1-[(S)-3-Methyl-2-((S)-2-methylamino-propionylamino)-butyryl]-2,3-dihydro-1H-pyrrolo[2,3-b]pyridine-2-carboxylic acid (2-cyano-phenyl)-amide] | > 54.8 | 0.0549
CN[C@@H](C)C(=O)N[C@H](C(=O)N1c2ncccc2C[C@H]1C(=O)Nc1ccc(C(=O)OC)cc1F)C(C)C [Example 49, 3-Fluoro-4-({(S)-1-[(S)-3-methyl-2-((S)-2-methylamino-propionylamino)-butyryl]-2,3-dihydro-1H-pyrrolo[2,3-b]pyridine-2-carbonyl}-amino)-benzoic acid methyl ester] | > 54.8 | 0.102
CN[C@@H](C)C(=O)N[C@H](C(=O)N1c2ncccc2C[C@H]1C(=O)Nc1ccc(S(C)(=O)=O)cc1F)C(C)C [Example 50, (S)-1-[(S)-3-Methyl-2-((S)-2-methylamino-propionylamino)-butyryl]-2,3-dihydro-1H-pyrrolo[2,3-b]pyridine-2-carboxylic acid (2-fluoro-4-methanesulfonyl-phenyl)-amide] | > 54.8 | 0.0893
CN[C@@H](C)C(=O)N[C@H](C(=O)N1c2ncccc2C[C@H]1C(=O)NCCS(C)(=O)=O)C(C)C [Example 51, (S)-1-[(S)-3-Methyl-2-((S)-2-methylamino-propionylamino)-butyryl]-2,3-dihydro-1H-pyrrolo[2,3-b]pyridine-2-carboxylic acid (2-methanesulfonyl-ethyl)-amide] | > 54.8 | 0.828
CN[C@@H](C)C(=O)N[C@H](C(=O)N1c2ncccc2C[C@H]1C(=O)NC(C)c1ccccc1)C(C)C (stereo partly drawn) [Example 52, (S)-1-[(S)-3-Methyl-2-((S)-2-methylamino-propionylamino)-butyryl]-2,3-dihydro-1H-pyrrolo[2,3-b]pyridine-2-carboxylic acid (1-phenyl-ethyl)-amide] | 21.5 | 0.978
CN[C@@H](C)C(=O)N[C@H](C(=O)N1c2ncccc2C[C@H]1C(=O)NCCS(=O)(=O)N(C)C)C(C)C [Example 53, (S)-1-[(S)-3-Methyl-2-((S)-2-methylamino-propionylamino)-butyryl]-2,3-dihydro-1H-pyrrolo[2,3-b]pyridine-2-carboxylic acid (2-dimethylsulfamoyl-ethyl)-amide] | > 54.8 | 0.74
CN[C@@H](C)C(=O)N[C@H](C(=O)N1c2ncccc2C[C@H]1C(=O)NC(C)(C)c1ccccc1)C(C)C [Example 54, (S)-1-[(S)-3-Methyl-2-((S)-2-methylamino-propionylamino)-butyryl]-2,3-dihydro-1H-pyrrolo[2,3-b]pyridine-2-carboxylic acid (1-methyl-1-phenyl-ethyl)-amide] | 47.4 | 4.73
CN[C@@H](C)C(=O)N[C@H](C(=O)N1c2ncccc2C[C@H]1C(=O)NCc1cc(F)ccc1C)C(C)C [Example 55, (S)-1-[(S)-3-Methyl-2-((S)-2-methylamino-propionylamino)-butyryl]-2,3-dihydro-1H-pyrrolo[2,3-b]pyridine-2-carboxylic acid 5-fluoro-2-methyl-benzylamide] | 35.3 | 0.139
CN[C@@H](C)C(=O)N[C@H](C(=O)N1c2ncccc2C[C@H]1C(=O)Nc1cncnc1)C(C)C [Example 56, (S)-1-[(S)-3-Methyl-2-((S)-2-methylamino-propionylamino)-butyryl]-2,3-dihydro-1H-pyrrolo[2,3-b]pyridine-2-carboxylic acid pyrimidin-5-ylamide] | > 54.8 | 1.63
CN[C@@H](C)C(=O)N[C@H](C(=O)N1c2ncccc2C[C@H]1C(=O)Nc1ccc2ccccc2c1)C(C)C [Example 57, (S)-1-[(S)-3-Methyl-2-((S)-2-methylamino-propionylamino)-butyryl]-2,3-dihydro-1H-pyrrolo[2,3-b]pyridine-2-carboxylic acid naphthalen-2-ylamide] | > 54.8 | 0.164
CN[C@@H](C)C(=O)N[C@H](C(=O)N1c2ncccc2C[C@H]1C(=O)Nc1ccc(C#N)cc1F)C(C)C [Example 58, (S)-1-[(S)-3-Methyl-2-((S)-2-methylamino-propionylamino)-butyryl]-2,3-dihydro-1H-pyrrolo[2,3-b]pyridine-2-carboxylic acid (4-cyano-2-fluoro-phenyl)-amide] | > 54.8 | 0.14
CN[C@@H](C)C(=O)N[C@H](C(=O)N1c2ncccc2C[C@H]1C(=O)Nc1ccc(C(F)(F)F)cc1F)C(C)C [Example 59, (S)-1-[(S)-3-Methyl-2-((S)-2-methylamino-propionylamino)-butyryl]-2,3-dihydro-1H-pyrrolo[2,3-b]pyridine-2-carboxylic acid (2-fluoro-4-trifluoromethyl-phenyl)-amide] | > 54.8 | 0.0536
CN[C@@H](C)C(=O)N[C@H](C(=O)N1c2ncccc2C[C@H]1C(=O)Nc1cccc(F)c1F)C(C)C [Example 60, (S)-1-[(S)-3-Methyl-2-((S)-2-methylamino-propionylamino)-butyryl]-2,3-dihydro-1H-pyrrolo[2,3-b]pyridine-2-carboxylic acid (2,3-difluoro-phenyl)-amide] | > 54.8 | 0.0382
CN[C@@H](C)C(=O)N[C@H](C(=O)N1c2ncccc2C[C@H]1C(=O)Nc1cc(F)ccc1F)C(C)C [Example 61, (S)-1-[(S)-3-Methyl-2-((S)-2-methylamino-propionylamino)-butyryl]-2,3-dihydro-1H-pyrrolo[2,3-b]pyridine-2-carboxylic acid (2,5-difluoro-phenyl)-amide] | > 54.8 | 0.0348
